As usually defined, the EC50 is the midpoint of the concentration-response curve. For orientation: Emax means the maximal effect, on the per cent scale that the assay sets.

The structures appear in SMILES notation. Read-outs that look alike come from different tables or passages of the source.

Consider four compounds from patent US20230265151A1, “GIP/GLP1 CO-AGONIST COMPOUNDS” (priority 2020, published 2023).

Common to all, as to format: cell-based
The target in one experiment is T1, hGCGR (Homo sapiens, UniProt P47871).
T1 construct: expressed in transfected cells
The experiment in a line: Functional cAMP formation (HTRF) in HEK-293 clonal cells expressing hGCGR, 0.1% bovine casein, without or with 1.0% human serum albumin. To be noted: geometric mean. The procedure, abridged: (§1)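 Cells were stimulated with peptide for 30 min at 37° C, then lysed in buffer carrying cAMP-d2 and anti-cAMP Eu3+-cryptate for a competitive HTRF read after at least 60 min at room temperature. The 665/620 nm ratio was converted to nM cAMP against a standard curve.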

A further experiment has as its target T2, hGIPR (Homo sapiens, UniProt P48546).
T2 construct: expressed in transfected cells
T2 sequence (P48546 22-466): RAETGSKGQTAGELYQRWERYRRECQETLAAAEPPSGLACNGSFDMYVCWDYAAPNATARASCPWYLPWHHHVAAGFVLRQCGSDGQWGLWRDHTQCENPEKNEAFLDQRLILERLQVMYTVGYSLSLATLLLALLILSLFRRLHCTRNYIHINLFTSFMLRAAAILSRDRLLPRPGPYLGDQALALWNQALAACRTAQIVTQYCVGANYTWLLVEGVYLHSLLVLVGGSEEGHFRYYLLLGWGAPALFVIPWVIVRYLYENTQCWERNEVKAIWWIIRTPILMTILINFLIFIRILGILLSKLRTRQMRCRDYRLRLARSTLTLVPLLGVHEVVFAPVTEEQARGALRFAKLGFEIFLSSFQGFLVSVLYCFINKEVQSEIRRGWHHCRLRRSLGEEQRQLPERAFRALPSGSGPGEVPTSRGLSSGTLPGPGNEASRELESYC
The experiment in a line: Functional cAMP formation (HTRF) in HEK-293 clonal cells expressing hGIPR, 0.1% bovine casein, without or with 1.0% human serum albumin. The conditions noted are these: for EC50: geometric mean. The procedure, abridged:
as §1

The next experiment has as its target hGLP-1R (Homo sapiens, UniProt P43220). The experiment in a line: Functional cAMP formation (HTRF) in HEK-293 clonal cells expressing hGLP-1R, 0.1% bovine casein, without or with 1.0% human serum albumin. Details: expressed in transfected cells. To be noted: for EC50: geometric mean. A digest of the protocol: as §1
On the technique in general: cAMP levels reflect the balance of adenylyl cyclase and phosphodiesterase activity.

Setting [1] is: 0.1% bovine casein and 1.0% human serum albumin, 37° C., read-out: hGCGR EC50, nM (SEM, n).
The mark [2] stands for this setting: cAMP, incubated at 37° C., 0.1% bovine casein (no human serum albumin), read-out: hGCGR EC50, nM (SEM, n).
[3] abbreviates: HEK293, percent of maximal response to GIP(1-42)NH2, 37° C., 0.1% bovine casein, arithmetic mean, read-out: hGIPR Emax, % ± SEM.
Where [4] appears, read: HEK293, 0.1% bovine casein and 1.0% human serum albumin, 37° C., percent of maximal response to GLP-1(7-36)NH2, read-out: hGLP-1R Emax, % ± SEM.
Setting [5] is: HEK293, 0.1% bovine casein and 1.0% human serum albumin, 37° C., percent of maximal response to GIP(1-42)NH2, read-out: hGIPR Emax, % ± SEM.
Setting [6] is: cAMP, incubated at 37° C., 0.1% bovine casein (no human serum albumin), read-out: hGIPR EC50, nM (SEM, n).
Setting [7] is: 0.1% bovine casein and 1.0% human serum albumin, 37° C., read-out: hGLP-1R EC50, nM (SEM, n).

T1 sequence (P47871 26-477): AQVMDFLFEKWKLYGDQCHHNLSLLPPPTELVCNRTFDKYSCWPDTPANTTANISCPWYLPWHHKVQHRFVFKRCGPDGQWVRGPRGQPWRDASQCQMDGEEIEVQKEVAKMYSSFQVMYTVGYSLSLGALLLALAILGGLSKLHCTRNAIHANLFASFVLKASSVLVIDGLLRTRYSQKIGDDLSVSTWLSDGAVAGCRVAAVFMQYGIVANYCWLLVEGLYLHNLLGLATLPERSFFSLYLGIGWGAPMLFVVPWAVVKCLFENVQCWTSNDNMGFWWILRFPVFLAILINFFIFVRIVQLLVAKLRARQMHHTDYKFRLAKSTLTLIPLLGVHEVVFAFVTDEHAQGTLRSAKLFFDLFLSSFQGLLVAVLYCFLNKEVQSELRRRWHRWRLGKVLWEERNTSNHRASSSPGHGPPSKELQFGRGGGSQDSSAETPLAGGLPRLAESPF
hGLP-1R, sequence (P43220 24-463): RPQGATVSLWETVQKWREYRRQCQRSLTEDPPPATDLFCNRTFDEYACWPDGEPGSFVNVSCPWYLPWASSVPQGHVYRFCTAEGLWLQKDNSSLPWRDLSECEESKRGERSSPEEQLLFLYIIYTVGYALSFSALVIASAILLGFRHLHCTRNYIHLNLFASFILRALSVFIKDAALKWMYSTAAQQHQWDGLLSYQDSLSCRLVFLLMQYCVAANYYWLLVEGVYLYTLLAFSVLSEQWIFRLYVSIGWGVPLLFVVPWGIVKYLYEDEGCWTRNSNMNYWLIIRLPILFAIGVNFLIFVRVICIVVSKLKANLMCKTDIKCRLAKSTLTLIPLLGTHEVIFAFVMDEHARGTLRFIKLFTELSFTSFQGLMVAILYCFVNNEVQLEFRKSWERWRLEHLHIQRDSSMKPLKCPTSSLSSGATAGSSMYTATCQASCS

Take `CC[C@H](C)[C@H](NC(=O)[C@H](CC(C)C)NC(=O)[C@](C)(Cc1ccc(O)cc1)NC(=O)[C@@H](CCC(=O)O)NC(=O)[C@@H](NC(=O)[C@H](Cc1ccc2ccccc2c1)NC(=O)[C@H](CCC(=O)O)NC(=O)C(C)(C)NC(=O)[C@H](CCC(N)=O)NC(=O)[C@H](C)NC(=O)[C@H](CCCCNC(=O)COCCOCCNC(=O)COCCOCCNC(=O)CC[C@H](NC(=O)CCCCCCCCCCCCC(=O)O)C(=O)O)NC(=O)[C@H](CCCN)NC(=O)[C@H](CC(=O)O)NC(=O)[C@H](CC(C)C)NC(=O)[C@](C)(CC(C)C)NC(=O)[C@@H](NC(=O)[C@H](CO)NC(=O)[C@H](Cc1ccncc1)NC(=O)[C@H](CC(=O)O)NC(=O)[C@H](CO)NC(=O)[C@@H](NC(=O)[C@](C)(Cc1ccccc1F)NC(=O)[C@@H](NC(=O)CNC(=O)[C@H](CCC(=O)O)NC(=O)C(C)(C)NC(=O)[C@@H](N)Cc1ccc(O)cc1)[C@@H](C)O)[C@@H](C)O)[C@@H](C)CC)[C@@H](C)CC)C(=O)N[C@@H](CCC(=O)O)C(=O)NCC(=O)NCC(=O)N[C@@H](CCCCNC(=O)COCCOCCNC(=O)COCCOCCNC(=O)CC[C@H](NC(=O)CCCCCCCCCCCCC(=O)O)C(=O)O)C(=O)N[C@@H](CO)C(=O)N[C@@H](CO)C(=O)NCC(=O)N[C@@H](C)C(=O)N1CCC[C@H]1C(=O)N1CCC[C@H]1C(=O)N1CCC[C@H]1C(=O)N[C@@H](CO)C(N)=O` [Example 99]: the EC50 on hGCGR (setting [1]) and at hGCGR (setting [2]) was greater than 9950 nM each time. The figures for the Emax at hGIPR (setting [3]) and at hGLP-1R (setting [4]) were 93.4 ± 1.02% and 81.1%, respectively.

Regarding `CC[C@H](C)[C@H](NC(=O)[C@H](CC(C)C)NC(=O)[C@](C)(Cc1ccc(O)cc1)NC(=O)[C@@H](CCC(=O)O)NC(=O)[C@@H](NC(=O)[C@H](Cc1ccccc1)NC(=O)[C@H](CCC(=O)O)NC(=O)C(C)(C)NC(=O)[C@H](CCC(N)=O)NC(=O)[C@H](C)NC(=O)[C@H](CCCCNC(=O)COCCOCCNC(=O)COCCOCCNC(=O)CCCCCCCCCCCCC(=O)O)NC(=O)[C@H](CCCN)NC(=O)[C@H](CC(=O)O)NC(=O)[C@H](CC(C)C)NC(=O)[C@](C)(CC(C)C)NC(=O)[C@@H](NC(=O)[C@H](CO)NC(=O)[C@H](Cc1ccncc1)NC(=O)[C@H](CC(=O)O)NC(=O)[C@H](CO)NC(=O)[C@@H](NC(=O)[C@](C)(Cc1ccccc1F)NC(=O)[C@@H](NC(=O)CNC(=O)[C@H](CCC(=O)O)NC(=O)C(C)(C)NC(=O)[C@@H](N)Cc1ccc(O)cc1)[C@@H](C)O)[C@@H](C)O)[C@@H](C)CC)[C@@H](C)CC)C(=O)N[C@@H](CCC(=O)O)C(=O)NCC(=O)NCC(=O)N1CCC[C@H]1C(=O)N[C@@H](CO)C(=O)N[C@@H](CO)C(=O)NCC(=O)N[C@@H](C)C(=O)N1CCC[C@H]1C(=O)N1CCC[C@H]1C(=O)N1CCC[C@H]1C(=O)N[C@@H](CO)C(=O)N[C@@H](CCCCNC(=O)COCCOCCNC(=O)COCCOCCNC(=O)CCCCCCCCCCCCC(=O)O)C(N)=O` [Example 221], the half-maximal effective concentration (EC50) was greater than 9950 nM at hGCGR (setting [1]), greater than 9950 nM at hGCGR (setting [2]), 0.0279 nM at hGIPR (setting [6]) and 17.9 nM on hGLP-1R (setting [7]). Besides, the Emax on hGIPR (setting [5]) stood at 67.4%; at hGIPR (setting [3]), 81.8%; at hGLP-1R (setting [4]) it was 92.3%; on hGLP-1R (HEK293, percent of maximal response to GLP-1(7-36)NH2, 37° C., 0.1% bovine casein, arithmetic mean, read-out: hGLP-1R Emax, % ± SEM), 83%.

As for `CC[C@H](C)[C@H](NC(=O)[C@H](CC(C)C)NC(=O)[C@](C)(Cc1ccc(O)cc1)NC(=O)[C@H](CCCCNC(=O)COCCOCCNC(=O)COCCOCCNC(=O)CC[C@H](NC(=O)CCCCCCCCCCCCC(=O)O)C(=O)O)NC(=O)[C@@H](NC(=O)[C@H](Cc1ccccc1)NC(=O)[C@H](CCC(=O)O)NC(=O)C(C)(C)NC(=O)[C@H](CCC(N)=O)NC(=O)[C@H](C)NC(=O)[C@H](CCCCNC(=O)COCCOCCNC(=O)COCCOCCNC(=O)CC[C@H](NC(=O)CCCCCCCCCCCCC(=O)O)C(=O)O)NC(=O)[C@H](CCCN)NC(=O)[C@H](CC(=O)O)NC(=O)[C@H](CC(C)C)NC(=O)[C@](C)(CC(C)C)NC(=O)[C@@H](NC(=O)[C@H](CO)NC(=O)[C@H](Cc1ccncc1)NC(=O)[C@H](CC(=O)O)NC(=O)[C@H](CO)NC(=O)[C@@H](NC(=O)[C@](C)(Cc1ccccc1F)NC(=O)[C@@H](NC(=O)CNC(=O)[C@H](CCC(=O)O)NC(=O)C(C)(C)NC(=O)[C@@H](N)Cc1ccc(O)cc1)[C@@H](C)O)[C@@H](C)O)[C@@H](C)CC)[C@@H](C)CC)C(=O)N[C@@H](CCC(=O)O)C(=O)NCC(=O)NCC(=O)N1CCC[C@H]1C(=O)N[C@@H](CO)C(=O)N[C@@H](CO)C(=O)NCC(=O)N[C@@H](C)C(=O)N1CCC[C@H]1C(=O)N1CCC[C@H]1C(=O)N1CCC[C@H]1C(=O)N[C@@H](CO)C(N)=O` [Example 16], the EC50 on hGCGR (hGCGR EC50, nM (SEM, n), 0.1% bovine casein and 1.0% human serum albumin, 37° C.) was greater than 9950 nM; at hGCGR (hGCGR EC50, nM (SEM, n), cAMP, incubated at 37° C., 0.1% bovine casein (no human serum albumin)), greater than 9950 nM; on hGIPR (hGIPR EC50, nM (SEM, n), 0.1% bovine casein and 1.0% human serum albumin, 37° C.) it was 0.625 nM; on hGIPR (hGIPR EC50, nM (SEM, n), cAMP, incubated at 37° C., 0.1% bovine casein (no human serum albumin)), 0.0113 nM; at hGLP-1R (hGLP-1R EC50, nM (SEM, n), 0.1% bovine casein and 1.0% human serum albumin, 37° C.), 9.06 nM; at hGLP-1R (hGLP-1R EC50, nM (SEM, n), cAMP, incubated at 37° C., 0.1% bovine casein (no human serum albumin)) it was 0.245 nM. Further, the Emax on hGIPR (HEK293, read-out: hGIPR Emax, % ± SEM, 0.1% bovine casein and 1.0% human serum albumin, 37° C., percent of maximal response to GIP(1-42)NH2) stood at 91.5 ± 1.01%; at hGLP-1R (HEK293, read-out: hGLP-1R Emax, % ± SEM, 0.1% bovine casein and 1.0% human serum albumin, 37° C., percent of maximal response to GLP-1(7-36)NH2), 98.3 ± 0.735%.

In the case of `CC[C@H](C)[C@H](NC(=O)[C@H](CCCN)NC(=O)[C@H](CC(=O)O)NC(=O)[C@H](CC(C)C)NC(=O)[C@](C)(CC(C)C)NC(=O)[C@@H](NC(=O)[C@H](CO)NC(=O)[C@H](Cc1ccncc1)NC(=O)[C@H](CC(=O)O)NC(=O)[C@H](CO)NC(=O)[C@@H](NC(=O)[C@](C)(Cc1ccccc1F)NC(=O)[C@@H](NC(=O)CNC(=O)[C@H](CCC(=O)O)NC(=O)C(C)(C)NC(=O)[C@@H](N)Cc1ccc(O)cc1)[C@@H](C)O)[C@@H](C)O)[C@@H](C)CC)C(=O)N[C@@H](C)C(=O)N[C@@H](CCC(N)=O)C(=O)NC(C)(C)C(=O)N[C@@H](CCCCNC(=O)COCCOCCNC(=O)COCCOCCNC(=O)CC[C@H](NC(=O)CCCCCCCCCCCCC(=O)O)C(=O)O)C(=O)N[C@@H](Cc1ccccc1)C(=O)N[C@H](C(=O)N[C@H](CCC(=O)O)C(=O)N[C@@](C)(Cc1ccc(O)cc1)C(=O)N[C@@H](CC(C)C)C(=O)N[C@H](C(=O)N[C@@H](CCC(=O)O)C(=O)NCC(=O)NCC(=O)N[C@@H](CCCCNC(=O)COCCOCCNC(=O)COCCOCCNC(=O)CC[C@H](NC(=O)CCCCCCCCCCCCC(=O)O)C(=O)O)C(=O)N[C@@H](CO)C(=O)N[C@@H](CO)C(=O)NCC(=O)N[C@@H](C)C(=O)N1CCC[C@H]1C(=O)N1CCC[C@H]1C(=O)N1CCC[C@H]1C(=O)N[C@@H](CO)C(N)=O)[C@@H](C)CC)[C@@H](C)CC` [Example 74], the EC50 at hGCGR (setting [1]) is greater than 9950 nM; at hGCGR (setting [2]), greater than 9950 nM; at hGIPR (0.1% bovine casein and 1.0% human serum albumin, 37° C., read-out: hGIPR EC50, nM (SEM, n)) it was 2.19 nM; at hGIPR (setting [6]), 0.0156 nM; on hGLP-1R (setting [7]), 59.5 nM; on hGLP-1R (cAMP, incubated at 37° C., 0.1% bovine casein (no human serum albumin), read-out: hGLP-1R EC50, nM (SEM, n)), 0.334 nM. Moreover, the maximal effect (Emax) on hGIPR (setting [5]) amounted to 86.7%; at hGIPR (setting [3]) it was 93.3 ± 2.89%.
